For test [1], the target named is human P2X7 (Homo sapiens (Human), UniProt Q99572). The test is described as follows: Human P2X7 functional assay (Ca2+ influx, Fluo-4, FDSS). The test is classed as cell-based. To be noted: antagonistic activity with respect to the human P2X7 receptor; BzATP final concentration 80 microM. Summed up:
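Ca2+ influx was triggered with BzATP (80 μM final) after a 10-min room-temperature compound preincubation and monitored with Fluo-4 (ex 480/em 540 nm) on FDSS. The cells were HEK293 stably carrying FLAG-tagged human P2X7. Duplicate-averaged 7-point dose-responses gave IC50s.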

The target of test [2] is rat P2X7 (Rattus norvegicus (Rat), UniProt Q64663). The test is described as follows: Rat P2X7 functional assay (Ca2+ influx, Fluo-4, FDSS). The test is classed as cell-based. The settings on record: HEK293 cells stably expressing rat P2X7; BzATP final 10 microM; 7-point dose-response; read-out: Antagonistic activities with respect to the rat P2X7 receptor (IC50). An outline of the steps:
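IC50 derived from 7-point dose-response in duplicate, measuring inhibition of BzATP-evoked (final 10 microM) intracellular Ca2+ increase by Fluo-4 fluorescence on FDSS. Rat P2X7-HEK293 cells were exposed to compound for 10 min in the dark beforehand.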

Bounds are passed on as bounds.

Sequence of human P2X7 (Q99572 whole entry): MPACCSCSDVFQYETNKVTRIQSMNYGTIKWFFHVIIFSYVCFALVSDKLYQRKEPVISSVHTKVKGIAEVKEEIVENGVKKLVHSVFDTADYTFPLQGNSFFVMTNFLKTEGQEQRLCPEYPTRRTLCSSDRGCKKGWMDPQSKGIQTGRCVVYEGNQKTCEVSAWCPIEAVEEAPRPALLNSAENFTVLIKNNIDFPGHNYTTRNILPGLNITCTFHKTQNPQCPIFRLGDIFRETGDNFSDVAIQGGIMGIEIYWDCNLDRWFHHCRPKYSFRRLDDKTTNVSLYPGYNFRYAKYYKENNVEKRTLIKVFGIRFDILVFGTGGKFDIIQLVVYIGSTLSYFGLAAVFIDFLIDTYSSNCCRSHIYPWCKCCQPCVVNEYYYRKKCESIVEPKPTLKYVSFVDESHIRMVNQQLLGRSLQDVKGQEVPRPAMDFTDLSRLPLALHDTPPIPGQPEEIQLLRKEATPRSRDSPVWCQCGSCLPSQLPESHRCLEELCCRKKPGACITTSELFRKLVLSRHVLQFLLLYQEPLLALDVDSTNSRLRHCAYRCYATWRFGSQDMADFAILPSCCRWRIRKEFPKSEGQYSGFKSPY
Sequence of rat P2X7 (Q64663 whole entry): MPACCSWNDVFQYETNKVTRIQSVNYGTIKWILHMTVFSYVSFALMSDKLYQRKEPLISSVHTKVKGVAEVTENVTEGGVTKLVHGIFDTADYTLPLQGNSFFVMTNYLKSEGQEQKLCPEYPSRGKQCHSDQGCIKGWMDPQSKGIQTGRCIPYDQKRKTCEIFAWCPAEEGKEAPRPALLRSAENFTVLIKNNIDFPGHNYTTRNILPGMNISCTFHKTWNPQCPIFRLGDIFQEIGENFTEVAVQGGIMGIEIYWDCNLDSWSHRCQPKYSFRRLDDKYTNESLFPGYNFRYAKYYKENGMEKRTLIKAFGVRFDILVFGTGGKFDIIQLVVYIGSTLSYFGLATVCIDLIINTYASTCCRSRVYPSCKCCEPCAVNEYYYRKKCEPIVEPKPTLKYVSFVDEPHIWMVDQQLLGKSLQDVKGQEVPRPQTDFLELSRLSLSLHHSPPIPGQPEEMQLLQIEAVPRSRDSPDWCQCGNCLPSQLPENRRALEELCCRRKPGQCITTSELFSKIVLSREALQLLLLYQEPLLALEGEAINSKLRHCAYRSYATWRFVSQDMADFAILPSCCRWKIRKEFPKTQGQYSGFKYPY

As usually defined, the IC50 is the point on the concentration scale where inhibition reaches its midpoint. `O=C(NCc1ccc(F)c(F)c1F)[C@]1(F)CC[C@H](OCCO)c2ncccc21` [Example 345, (5S,8S)-5-fluoro-8-(2-hydroxyethoxy)-N-(2.3.4-trifluorobenzyl)-5,6,7,8-tetrahydroquinoline-5-carboxamide]: the IC50 in test [1] is less than 50 nM; in test [2] it was less than 1000 nM.
On the same counts, the results for `O=C1CC[C@@](F)(C(=O)NCc2c(F)cc(Cl)cc2Cl)c2cccnc21` [Example 251, (S)-N-(2,4-dichloro-6-fluorobenzyl)-5-fluoro-8-oxo-5,6,7,8-tetrahydro-quinoline-5-carboxamide] are less than 50 nM and less than 1000 nM.
On the same counts, the results for `C[C@@]1(O)CC[C@@](F)(C(=O)NCc2ccc(Cl)cc2Cl)c2cccnc21` [Example 257, (5S,8R)-N-(2,4-dichlorobenzyl)-5-fluoro-8-hydroxy-8-methyl-5,6,7,8-tetrahydroquinoline-5-carboxamide] are 101 to 300 nM and less than 1000 nM.
In the same order, the values of `O=C(NCc1c(F)cc(Cl)cc1Cl)[C@@H]1CC[C@H](O)c2ncccc21` [Example 70, (5R,8S)-N-(2,4-dichloro-6-fluorobenzyl)-8-hy-droxy-5,6,7,8-tetrahydro-quinoline-5-carboxamide] are less than 50 nM and less than 1000 nM.
Regarding `O=C(NCc1c(F)ccc(F)c1Cl)[C@]1(F)CC[C@H](O)c2ncccc21` [Example 170, (5S,8S)-N-(2-chloro-3,6-difluorobenzyl)-5-fluoro-8-hydroxy-5,6,7,8-tetrahydroquinoline-5-carboxamide], the IC50 in test [1] was less than 50 nM; in test [2] it was less than 1000 nM.
In the same order, the values of `COc1ccc(CNC(=O)[C@]2(F)CC[C@H](O)c3ncccc32)c(Cl)c1` [Example 172, (5S,8S)-N-(2-chloro-4-methoxybenzyl)-5-fluoro-8-hydroxy-5,6,7,8-tetrahydroquinoline-5-carboxamide] are 101 to 300 nM and less than 1000 nM.
On the same counts, the results for `O=C(NCc1cccc(F)c1Cl)[C@]1(F)CC[C@H](O)c2ncccc21` [Example 169, (5S,8S)-N-(2-chloro-3-fluorobenzyl)-5-fluoro-8-hydroxy-5,6,7,8-tetrahydroquinoline-5-carboxamide] are less than 50 nM and less than 1000 nM.
In the same order, the values of `CN(CCO)C[C@]1(O)CC[C@@](F)(C(=O)NCc2ccc(F)cc2Cl)c2cccnc21` (relative stereo) [Example 57, (5S*,8R*)-N-(2-chloro-4-fluorobenzyl)-5-fluoro-8-hydroxy-8-(((2-hydroxyethyl)(meth-yl)amino)methyl)-5,6,7,8-tetrahydroquinoline-5-carboxamide] are less than 50 nM and less than 1000 nM.
Regarding `COC1(C)CN(C[C@]2(O)CC[C@@](F)(C(=O)NCc3ccc(F)cc3Cl)c3cccnc32)C1` (relative stereo) [Example 55, (5S*,8R*)-N-(2-chloro-4-fluorobenzyl)-5-fluoro-8-hydroxy-8-((3-methoxy-3-methylazetidin-1-yl)methyl)-5,6,7,8-tetra-hydroquinoline-5-carboxamide], the IC50 is less than 50 nM in test [1] and less than 1000 nM in test [2].
Turning to `O=C(NCc1ccc(F)cc1C(F)(F)F)[C@]1(F)CC[C@@H](O)c2ncccc21` [Example 110, (5S,8R)-5-fluoro-N-(4-fluoro-2-(trifluoromethyl)benzyl)-8-hydroxy-5,6,7,8-tetrahydroquinoline-5-carboxamide], the IC50 is 301 to 1000 nM in test [1] and less than 1000 nM in test [2].
In the same order, the values of `C[C@]1(O)CC[C@@](F)(C(=O)NCc2ccc(Cl)cc2F)c2cccnc21` [Example 264, (5S,8S)-N-(4-chloro-2-fluorobenzyl)-5-fluoro-8-hydroxy-8-methyl-5,6,7,8-tetrahydroquinoline-5-carboxamide] are less than 50 nM and less than 1000 nM.

The values above are taken from patent publication US11077100B2, “Tetrahydroquinoline derivatives as P2X7 receptor antagonists” (RaQualia Pharma Inc., priority 2017, dated 2021).
